Test results as given in ChEMBL document CHEMBL5620376, “Design, synthesis and anti-NASH effect evaluation of novel GFT505 derivatives in vitro and in vivo” (Eur J Med Chem, 2023).
The source made the active and inactive calls. The calls are words filed in the database; no cut-off is given here.

Legend:
HepG2 [1] = assay: Cytotoxicity against human HepG2 cells assessed as inhibition of cell proliferation at 20 to 80 micromol/L incubated for 24 hrs by MTT assay; type: functional, cell-based; settings: dose 20-80 µmol/L
HepG2 [2] = assay: Anti-NASH activity in free fatty acid-induced nonalcoholic steatohepatitis model in human HepG2 cells assessed as reduction in intracellular lipid accumulation at 40 micromol/L incubated for 24 hrs by Oil Red O/ Hematoxylin staining based analysis; type: functional, cell-based; settings: dose 40.0 µmol/L
HepG2 [3] = assay: Anti-NASH activity in free fatty acid-induced nonalcoholic steatohepatitis model in human HepG2 cells assessed as reduction in intracellular triglyceride level measured per mg of protein at 40 micromol/L incubated for 24 hrs; type: functional, cell-based; settings: dose 40.0 µmol/L
HepG2 [4] = assay: Anti-NASH activity in free fatty acid-induced nonalcoholic steatohepatitis model in human HepG2 cells assessed as reduction in AST activity at 40 micromol/L incubated for 24 hrs; type: functional; settings: dose 40 µmol/L
[5] = Hepatotoxicity in MCD diet-induced C57BL/6 mouse assessed as reduction in liver index at 3 to 30 mg/kg,po administrated for 4 weeks by hematoxylin and eosin staining based microscopic analysis; type: toxicity, organism-based; settings: in vivo, 672 h, dose 3-30 mg/kg
Mus musculus [6] = assay: Anti-NASH activity in MCD diet-induced nonalcoholic steatohepatitis C57BL/6 mouse assessed as reduction in triglyceride level in serum at 3 mg/kg,po administrated for 28 days; type: functional, organism-based; settings: time 28.0 day
Mus musculus [7] = assay: Anti-NASH activity in MCD diet-induced nonalcoholic steatohepatitis C57BL/6 mouse assessed as reduction in triglyceride level in serum at 10 mg/kg,po administrated for 28 days; type: functional; settings: time 28 day
Mus musculus [8] = assay: Anti-NASH activity in MCD diet-induced nonalcoholic steatohepatitis C57BL/6 mouse assessed as reduction in triglyceride level in serum at 30 mg/kg,po administrated for 28 days; type: functional; settings: time 28 day
Mus musculus [9] = assay: Anti-NASH activity in MCD diet-induced nonalcoholic steatohepatitis C57BL/6 mouse assessed as reduction in triglyceride level in serum at 3 mg/kg,po administrated […]; type: functional
Mus musculus [10] = assay: Anti-NASH activity in MCD diet-induced nonalcoholic steatohepatitis C57BL/6 mouse assessed as reduction in total cholesterol level in serum at 3 to 30 mg/kg,po administrated for 28 days; type: functional, organism-based; settings: dose 3-30 mg/kg, time 28.0 day
Mus musculus [11] = assay: Anti-NASH activity in MCD diet-induced nonalcoholic steatohepatitis C57BL/6 mouse assessed as increase in serum HDL level at 3 to 30 mg/kg,po administrated for 28 days; type: functional, organism-based; settings: dose 3-30 mg/kg, time 28.0 day
Mus musculus [12] = assay: Anti-NASH activity in MCD diet-induced nonalcoholic steatohepatitis C57BL/6 mouse assessed as decrease in serum LDL level at 3 to 30 mg/kg,po administrated for 28 days; type: functional, organism-based; settings: dose 3-30 mg/kg, time 28.0 day
Mus musculus [13] = assay: Anti-NASH activity in MCD diet-induced nonalcoholic steatohepatitis C57BL/6 mouse assessed as decrease in serum AST activity at 3 to 30 mg/kg,po administrated for 28 days; type: functional, organism-based; settings: dose 3-30 mg/kg, time 28.0 day
Mus musculus [14] = assay: Anti-NASH activity in MCD diet-induced nonalcoholic steatohepatitis C57BL/6 mouse assessed as decrease in serum ALT activity at 10 mg/kg,po administrated for 28 days; type: functional, organism-based; settings: time 28.0 day
Mus musculus [15] = assay: Anti-NASH activity in MCD diet-induced nonalcoholic steatohepatitis C57BL/6 mouse assessed as decrease in serum ALT activity at 30 mg/kg,po administrated for 28 days; type: functional, organism-based; settings: time 28.0 day
Mus musculus [16] = assay: Anti-NASH activity in MCD diet-induced nonalcoholic steatohepatitis C57BL/6 mouse assessed as increase in liver GSH level at 3 to 30 mg/kg,po administrated for 28 days; type: functional, organism-based; settings: dose 3-30 mg/kg, time 28.0 day
Mus musculus [17] = assay: Anti-NASH activity in MCD diet-induced nonalcoholic steatohepatitis C57BL/6 mouse assessed as decrease in serum TNF-alpha level at 3 to 30 mg/kg,po administrated for 28 days; type: functional, organism-based; settings: dose 3-30 mg/kg, time 28.0 day
Mus musculus [18] = assay: Anti-NASH activity in MCD diet-induced nonalcoholic steatohepatitis C57BL/6 mouse assessed as decrease in serum IL-6 level at 3 to 30 mg/kg,po administrated for 28 days; type: functional, organism-based; settings: dose 3-30 mg/kg, time 28.0 day
Mus musculus [19] = assay: Anti-NASH activity in MCD diet-induced nonalcoholic steatohepatitis C57BL/6 mouse assessed as decrease in serum IL-8 level at 3 to 30 mg/kg,po administrated for 28 days; type: functional, organism-based; settings: dose 3-30 mg/kg, time 28.0 day
Mus musculus [20] = assay: Anti-NASH activity in MCD diet-induced nonalcoholic steatohepatitis C57BL/6 mouse assessed as reduction in triglyceride level in serum at 3 to 30 mg/kg,po administrated for 28 days; type: functional, organism-based; settings: dose 3-30 mg/kg, time 28.0 day
Mus musculus [21] = assay: Anti-NASH activity in MCD diet-induced nonalcoholic steatohepatitis C57BL/6 mouse assessed as increase in liver GSH level at 30 mg/kg,po administrated for 28 days; type: functional; settings: time 28 day
HepG2 [22] = assay: Anti-NASH activity in free fatty acid-induced nonalcoholic steatohepatitis model in human HepG2 cells assessed as reduction in intracellular lipid accumulation at 100 micromol/L incubated for 24 hrs by Oil Red O/ Hematoxylin staining based analysis; type: functional, cell-based; settings: dose 100.0 µmol/L
HepG2 [23] = assay: Anti-NASH activity in free fatty acid-induced nonalcoholic steatohepatitis model in human HepG2 cells assessed as reduction in intracellular triglyceride level measured per mg of protein at 100 micromol/L incubated for 24 hrs; type: functional; settings: dose 100 µmol/L
HepG2 [24] = assay: Anti-NASH activity in free fatty acid-induced nonalcoholic steatohepatitis model in human HepG2 cells assessed as reduction in AST activity at 100 micromol/L incubated for 24 hrs; type: functional; settings: dose 100 µmol/L
[25] = Hepatotoxicity in MCD diet-induced C57BL/6 mouse assessed as reduction in liver index at 100 mg/kg,po administrated for 4 weeks by hematoxylin and eosin staining based microscopic analysis; type: toxicity, organism-based; settings: in vivo, 672 h
Mus musculus [26] = assay: Anti-NASH activity in MCD diet-induced nonalcoholic steatohepatitis C57BL/6 mouse assessed as reduction in triglyceride level in serum at 100 mg/kg,po administrated for 28 days; type: functional, organism-based; settings: time 28.0 day
Mus musculus [27] = assay: Anti-NASH activity in MCD diet-induced nonalcoholic steatohepatitis C57BL/6 mouse assessed as decrease in serum AST activity at 100 mg/kg,po administrated for 28 days; type: functional, organism-based; settings: time 28.0 day
Mus musculus [28] = assay: Anti-NASH activity in MCD diet-induced nonalcoholic steatohepatitis C57BL/6 mouse assessed as increase in serum HDL level at 100 mg/kg,po administrated for 28 days; type: functional, organism-based; settings: time 28.0 day
Mus musculus [29] = assay: Anti-NASH activity in MCD diet-induced nonalcoholic steatohepatitis C57BL/6 mouse assessed as decrease in serum LDL level at 100 mg/kg,po administrated for 28 days; type: functional, organism-based; settings: time 28.0 day
Mus musculus [30] = assay: Anti-NASH activity in MCD diet-induced nonalcoholic steatohepatitis C57BL/6 mouse assessed as decrease in serum ALT activity at 100 mg/kg,po administrated for 28 days; type: functional, organism-based; settings: time 28.0 day
Mus musculus [31] = assay: Anti-NASH activity in MCD diet-induced nonalcoholic steatohepatitis C57BL/6 mouse assessed as increase in liver GSH level at 100 mg/kg,po administrated for 28 days; type: functional, organism-based; settings: time 28.0 day
Mus musculus [32] = assay: Anti-NASH activity in MCD diet-induced nonalcoholic steatohepatitis C57BL/6 mouse assessed as decrease in serum TNF-alpha level at 100 mg/kg,po administrated for 28 days; type: functional, organism-based; settings: time 28.0 day
Mus musculus [33] = assay: Anti-NASH activity in MCD diet-induced nonalcoholic steatohepatitis C57BL/6 mouse assessed as decrease in serum IL-6 level at 100 mg/kg,po administrated for 28 days; type: functional, organism-based; settings: time 28.0 day

Cc1cc(/C=C/C(=O)c2ccc(N(C)C)cc2)cc(C)c1OC(C)(C)C(=O)O
Activity (HepG2 [1]): inactive | Activity (HepG2 [2]): Active | Activity (HepG2 [3]): Active

C[Se]c1ccc(C(=O)/C=C/c2cc(C)c(OC(C)(C)C(=O)O)c(C)c2)cc1
Activity (HepG2 [1]): Active | Activity (HepG2 [2]): Active | Activity (HepG2 [3]): Active

COc1ccc(C(=O)/C=C/c2cc(C)c(OC(C)(C)C(=O)O)c(C)c2)cc1
Activity (HepG2 [1]): Active | Activity (HepG2 [2]): Active | Activity (HepG2 [3]): Active

Cc1cc(/C=C/C(=O)c2ccc(N(C)Cc3ccccc3)cc2)cc(C)c1OC(C)(C)C(=O)OC(C)(C)C
Activity (HepG2 [1]): inactive | Activity (HepG2 [2]): Active | Activity (HepG2 [3]): Active

CSc1ccc(C(=O)/C=C/c2cc(C)c(OC(C)(C)C(=O)O)c(C)c2)cc1 [ELAFIBRANOR]
Activity (HepG2 [1]): Active | Activity (HepG2 [2]): Active | Activity (HepG2 [3]): Active | Activity (HepG2 [4]): 18.31 U/g | Activity [5]: Toxic | Activity (Mus musculus [6]): inactive | Activity (Mus musculus [7]): 0.69 mmol/L | Activity (Mus musculus [8]): 0.53 mmol/L | Activity (Mus musculus [9]): 0.64 mmol/L | Activity (Mus musculus [10]): Active | Activity (Mus musculus [11]): Active | Activity (Mus musculus [12]): Active | Activity (Mus musculus [13]): Active | Activity (Mus musculus [14]): Active | Activity (Mus musculus [15]): Active | Activity (Mus musculus [16]): Active | Activity (Mus musculus [17]): Active | Activity (Mus musculus [18]): Active | Activity (Mus musculus [19]): Active

CNc1ccc(C(=O)/C=C/c2cc(C)c(OC(C)(C)C(=O)OC(C)(C)C)c(C)c2)cc1
Activity (HepG2 [1]): inactive | Activity (HepG2 [2]): Active | Activity (HepG2 [3]): Active | Activity (HepG2 [4]): 18.65 U/g | Activity [5]: Non-Toxic | Activity (Mus musculus [20]): Active | Activity (Mus musculus [10]): Active | Activity (Mus musculus [11]): Active | Activity (Mus musculus [12]): Active | Activity (Mus musculus [13]): Active | Activity (Mus musculus [14]): Active | Activity (Mus musculus [15]): Active | Activity (Mus musculus [16]): Active | Activity (Mus musculus [21]): 47.8 µmol/g | Activity (Mus musculus [17]): Active | Activity (Mus musculus [18]): Active | Activity (Mus musculus [19]): Active

COc1ccc(C(=O)/C=C/c2cc(C)c(OC(C)(C)C(=O)OC(C)(C)C)c(C)c2)cc1
Activity (HepG2 [1]): inactive | Activity (HepG2 [2]): Active | Activity (HepG2 [3]): Active

C[Se]c1ccc(C(=O)/C=C/c2cc(C)c(OC(C)(C)C(=O)OC(C)(C)C)c(C)c2)cc1
Activity (HepG2 [1]): inactive | Activity (HepG2 [2]): Active | Activity (HepG2 [3]): Active

CSc1ccc(C(=O)/C=C/c2cc(C)c(OC(C)(C)C(=O)OC(C)(C)C)c(C)c2)cc1
Activity (HepG2 [1]): inactive | Activity (HepG2 [2]): Active | Activity (HepG2 [3]): Active

CC(C)OC(=O)C(C)(C)Oc1ccc(C(=O)c2ccc(Cl)cc2)cc1 [FENOFIBRATE]
Activity (HepG2 [22]): Active | Activity (HepG2 [23]): 0.15 mmol | Activity (HepG2 [24]): 19.78 U/g | Activity [25]: Toxic | Activity (Mus musculus [26]): Active | Activity (Mus musculus [27]): Active | Activity (Mus musculus [28]): Active | Activity (Mus musculus [29]): Active | Activity (Mus musculus [30]): Active | Activity (Mus musculus [31]): Active | Activity (Mus musculus [32]): Active | Activity (Mus musculus [33]): Active

CNc1ccc(C(=O)/C=C/c2cc(C)c(OC(C)(C)C(=O)O)c(C)c2)cc1
Activity (HepG2 [1]): inactive | Activity (HepG2 [2]): inactive | Activity (HepG2 [3]): inactive

Cc1cc(/C=C/C(=O)c2ccc(N(C)C)cc2)cc(C)c1OC(C)(C)C(=O)OC(C)(C)C
Activity (HepG2 [1]): inactive | Activity (HepG2 [2]): inactive | Activity (HepG2 [3]): inactive

Cc1cc(/C=C/C(=O)c2ccc(N(C)Cc3ccccc3)cc2)cc(C)c1OC(C)(C)C(=O)O
Activity (HepG2 [1]): inactive | Activity (HepG2 [2]): Active | Activity (HepG2 [3]): Active
